{"source": "patent US20170209364A1", "about": "“Method For Treating The Appearance Of Thinning Hair” (priority 2016, published 2017)", "key": {"[1]": {"test_system": "5-α reductase enzyme", "assay": "5-α reductase inhibition: [14C]-testosterone metabolism to DHT in cultured cells (TLC/autoradiography)", "format": "cell-based", "details": "Finasteride 1 × 10^−5 M (reference)", "protocol": "Cells were seeded in a 24-well plate and cultured for 24 hours in culture medium. […] Cells were then treated with assay medium containing [^14C]-testosterone and containing the test compound, the association or the reference and the cells were incubated for 24 hours. The culture supernatants were then collected for testosterone metabolism analysis and a standard MTT reduction assay was performed on the cell layers (cell viability assessment).\nAll experimental conditions were performed in n=3.\nThe steroid molecules from supernatants were extracted with a chloroform/methanol mix. The organic phase was collected and the different molecular species (testosterone metabolites) were separated by thin layer chromatography (TLC) and using a solvent system containing dichloromethane, ethyl acetate and methanol.\nAn autoradiography was performed on the chromatography and the transformed testosterone was estimated by densitometric analysis of the different spots corresponding to testosterone metabolites (Packard Cyclone Phosphorlmager and Fujifilm Multigauge software)."}, "[2]": {"assay": "in vitro", "protocol": "Cells were seeded in a 24-well plate and cultured for 24 hours in culture medium.\nAt the end of incubation, the cells were incubated with MTT (tetrazolium salt) reduced in blue formazan crystals by succinate dehydrogenase (mitochondrial enzyme). This transformation is proportional to the enzyme activity. After cell dissociation and formazan crystal solubilization using DMSO, the optical density (OD) of the extracts at 540 nm, proportional to the number of living cells and their metabolic activity, was recorded with a microplate reader (VERSAmax, Molecular Devices). The equation used for measuring cell viability is as follows: viability (%)=(OD sample/OD control)×100.\nDermal papilla cell viability is measured with a standard MTT assay (via ASTM E2526-08(2013))."}}, "data": [{"smiles": "CC(C)(C)NC(=O)[C@H]1CC[C@H]2[C@@H]3CC[C@H]4NC(=O)C=C[C@]4(C)[C@H]3CC[C@]12C", "note": "[Finasteride, finasteride]", "values": [{"measurement": "DHT/Testosterone ratio as % of Control", "setting": "[1]", "result": 28, "unit": "%"}, {"measurement": "viability at 48 h", "setting": "[2]", "result": 101, "unit": "%"}]}]}
